Consider ten compounds from patent publication US5633277A, “Sulfonamide aminomethylene derivatives as immunosuppressants” (Miles Inc., priority 1995, dated 1997).

Several values for one entry are separate records, joined by “and”; a condition that tells them apart may be missing. Equal values may be shown once. A value given as a limit tells only on which side of the number the result lay.

The test system of one test is NF-AT. Description: NF-AT Inhibition Assay (NF-AT directed β-galactosidase expression in stimulated FGL-5 cells). Type of test: cell-based. The conditions noted are these: phorbol ester and ionomycin stimulated, 16-18 hours. On the procedure: Stimulation of T-cells leads to the appearance of several transcription factors, including one designated "NF-AT". These factors are involved in regulation of gene expression required for immunologic activation. Some of these transcription factors appear to have functions in a wide variety of cell types. By contrast, NF-AT is found primarily in T-cells and its role is restricted to early gene activation.
Inhibition of NF-AT activity is measured using FGL-5 cells. FGL-5 is a cloned line of stably transfected Jurkat T-cells that contain a construct in which three tandem copies of the NF-AT DNA binding site direct transcription of the lacZ gene, encoding β-galactosidase (Fiering et al., 1990, Genes & Development 4:1823). When these cells are stimulated with phorbol esters which activate protein kinase C and calcium ionophore to raise the intracellular calcium concentration, transcriptionally active NF-AT is produced. In T-cells, this normally leads to the expression of IL-2, T-cell growth factor. However, in FGL-5 cells NF-AT activation leads to the production of β-galactosidase which can be detected using an appropriate substrate.
NF-AT Inhibition Assay Directed β-Galactosidase Expression
This assay was performed essentially as described (Bierer et al., 1990, Proc. Natl. Acad. Sci. 87:9231). FGL-5 cells were maintained in medium consisting of RPMI-1640 with 10% FBS, 2 mM L-glutamine, 1% Penicillin- Streptomycin and 15 mM HEPES buffer. The assays were done with exponentially growing cells whose density was not greater than 0.5 million cells/ml. The cells were resuspended to 3 million cells/ml in medium and 0. 1 mi was added to wells of a 96-well plate.
The compounds of the present invention were dissolved in either ethanol or dimethylsulfoxide at 10 mM and 0.05 ml/well of various dilutions in medium were added to cells in duplicate wells. Treatment controls consisted of duplicate wells to which 0.05 ml/well of either medium, ethanol or dimethylsulfoxide was added. The ethanol and dimethyl sulfoxide were at the same concentration as was used for the compounds. Cells were incubated with compounds at room temperature for 10-15 minutes. Phorbol dibutyrate (Sigma) and Ionomycin (Calbiochem) were dissolved at 50 μg g/mi and 2 mM, respectively and stored at -70° C.
FGL-5 cells were stimulated by diluting these reagents with medium to 200 ng/ml and 8 μM, respectively and adding of 0.05 ml/well. For unstimulated cell controls, 0.05 mi/well of medium was added to duplicate wells. The plates were incubated overnight (16-18 hours) at 37° C. in a humidified atmosphere of 5% CO2 and air. β-galactosidase activity was measured as the fluorescence generated by the cleavage of 4-methyl umbelliferyl-β-D-galactoside (Sigma) at the β-galactoside bond. After overnight incubation, the cells were centrifuged at 500×g for 3 minutes in the 96-well plates and washed 3 times with PBS. The cells were then resuspended in 0. 18 mi/well of reaction medium containing 100 mM sodium phosphate buffer, pH 7.0, 10 mM potassium chloride, 1 mM magnesium sulfate, 0.1% Triton X-100 (Pierce, Rockford, Ill.), and 0.5 mM 4-methylumbelliferyl-β-D- galactoside.
The fluorescence at 460 nm using 355 nm excitation was measured at intervals over 1-2 hours (during which fluorescence increased linearly with time) with a LS50 Luminescence Spectrometer (Perkin Elmer).
The percent inhibition by each concentration of the compounds was calculated as: [formula]
The values of the concentration of compounds required for 50% inhibition (IC50) were determined by linear regression analysis of the percent inhibition at various compound concentrations.

The target in the next test is FKBP (Homo sapiens, UniProt P62942). Description: PPIase Inhibition Assay. It counts as biochemical. On the procedure: 1) Inhibition of PPlase Activity
This assay follows in principle the procedure described in Kofron et al., 1991, Biochemistry 30:6127. The three main reagents used are PPIase, a substrate for PPIase, and a selected inhibitor compound of the present invention. The basic principle behind this assay is the conversion of the cis isomer of the substrate to the trans form, which conversion is catalyzed by PPIase. Essentially, inhibition of this PPIase activity is measured for the selected compounds. A peptide chymotrypsin substrate containing a proline in the P2 position is only cleaved by chymotrypsin when the Phe-Pro bond is in the trans isomeric configuration. In the presence of excess chymotrypsin, all of the trans peptide isomers are cleaved within approximately five seconds, leaving only cis forms.
The cis peptide will spontaneously convert to the trans isomer at a slow rate. The cis to trans conversion is catalyzed by isomerases at a much faster rate than this spontaneous conversion. Proteins with PPIase activity are examples of such isomerases. After isomerization, the peptide is cleaved by chymotrypsin releasing p-nitroaniline which can be monitored at 390 nm. The rate of release is then calculated using a first order rate plus offset equation utilizing the ENZFITTER program (Leatherbarrow, BIOSOFT, Cambridge, United Kingdom).
In a plastic cuvette are added 950 ul of ice cold assay buffer (25 mM HEPES, pH 7.8, 100 mM NaCl), 10 uL of FKBP (2.5 uM in 10 mM Tris-Cl pH 7.5,100 mM NACl, 1 mM dithiothreitol), 25 ul of chymotrypsin (50 mg/ml in 1 mM HCl) and 10 ul of the test compound at various concentrations in dimethyl sulphoxide. The reaction is initiated by addition of 5 ul of substrate (Succinyl-Ala-Phe-Pro-Phe-para-nitroanilide, 5 mg/ml in 235 mM LiCl in trifluoroethanol).
The absorbance at 390 nm versus time is monitored for 90 sec using a Beckman DU70 spectrophotometer. The absorbance versus time data files are transferred to an IBM XT computer and the rate constants determined using the commercial Enzfitter program. For each set of data, the uncatalyzed rate of conversion is measured and the uninhibited enzymatic rate determined. The data are expressed as % Inhibition and are calculated as follows: [formula] where kobs is the rate in the presence of a selected test compound, kuncat is the rate in the absence of enzyme, and kuninh is the rate in the presence of enzyme and absence of inhibitor. Data are plotted as percent inhibition versus concentration of inhibitor. The values of the concentration of inhibitor required for 50% inhibition of enzyme activity (IC50) were determined by nonlinear least squares regression analysis.

Chain of FKBP (P62942 whole entry): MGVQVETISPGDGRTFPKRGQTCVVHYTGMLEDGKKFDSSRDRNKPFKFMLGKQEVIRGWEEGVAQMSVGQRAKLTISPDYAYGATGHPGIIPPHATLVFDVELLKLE

As a reminder, the IC50 is the concentration needed to halve the response being measured. Read a high IC50 as weaker potency. `CC(C)C[C@@H](CN1CCC[C@H]1C(=O)NCCCCc1ccccc1)NS(=O)(=O)/C=C/c1ccccc1` [Example 6, 1-[2-(S)-(2-phenyl-ethenesulfonylamino)-4-methylpentyl]-L-proline 4-Phenylbutylamtde]: the figures for the IC50 in the test on NF-AT and on FKBP were over 15 µM and over 5 µM, respectively.
Consider `Cc1ccc(S(=O)(=O)N[C@@H](CC(C)C)CN2CCC[C@H]2C(=O)NCCCCc2ccccc2)cc1` [Example 2, 1-[2-(S)-(Toluene-4-sulfonylamino)-4-methylpentyl]-L-proline 4-Phenylbutylamide], for which the half-inhibitory concentration (IC50) in the test on NF-AT is 27 µM; on FKBP, over 5 µM.
Take `CC(C)C[C@@H](CN1CCC[C@H]1C(=O)NCCCCc1ccccc1)NS(C)(=O)=O` [Example 1, 1-[2-(S)-Methanesulfonylamino-4-methylpentyl]-L-proline 4-Phenylbutylamide]: the IC50 in the test with NF-AT is ≤ 11 µM and 9 µM; against FKBP, 3.5 µM.
On to `CC(C)C[C@@H](CN1CCC[C@H]1C(=O)NCCCCc1ccccc1)NS(=O)(=O)CC12CCC(CC1=O)C2(C)C` (single isomer, unassigned) [Example 7], for which the figures for the IC50 in the test with NF-AT and against FKBP were over 15 µM and over 5 µM, respectively.
For `CC(C)C[C@@H](CN1CCC[C@H]1C(=O)NCCCCc1ccccc1)NS(=O)(=O)c1ccc(-c2ccon2)s1` [Example 8, 1-[2-(S)-(5 - [Isoxazol-25-yl]-thiophene-2-sulfonylamino)-4-methylpentyl]-L-proline 4-Phenylbutylamide], the IC50 in the test with NF-AT was over 15 µM; against FKBP, over 5 µM.
Taken in the same sequence, the figures for `CC(=O)Nc1nc(C)c(S(=O)(=O)N[C@@H](CC(C)C)CN2CCC[C@H]2C(=O)NCCCCc2ccccc2)s1` [Example 4, 1-[2-(S)-(2-Acetylamino-4-methyl-S-thiazolesulfonylamino)-4-methylpentyl]-L -proline 4-Phenylbutylamide] were 24 µM and over 5 µM.
For `CC(C)C[C@@H](CN1CCC[C@H]1C(=O)NCCCCc1ccccc1)NS(=O)(=O)c1c(C(C)C)cc(C(C)C)cc1C(C)C` [Example 10, 1-[2-(S)-(2',4',6'-Triisopropylbenzenesulfonylamino)-4-methylpentyl]-L-proline 4-Phenylbutylamide] the same measures were over 15 µM and over 5 µM.
In the case of `CC(C)C[C@@H](CN1CCC[C@H]1C(=O)NCCCCc1ccccc1)NS(=O)(=O)c1cccs1` [Example 5, 1-[2-(S)-(Thiophene-2-sulfonylamino)-4-methylpentyl]-L-proline 4-Phenylbutylamide], the half-maximal inhibitory concentration (IC50) with NF-AT was 24 µM; on FKBP it was over 5 µM.
`CC[C@H](C)[C@H](NC(=O)[C@@H]1CCCCN1C[C@@H](NS(C)(=O)=O)[C@@H](C)CC)C(=O)NCc1ccccc1` [Example 11]: the half-inhibitory concentration (IC50) is over 15 µM in the test with NF-AT and over 5 µM at FKBP.
With `CC(C)C[C@@H](CN1CCC[C@H]1C(=O)NCCCCc1ccccc1)NS(=O)(=O)c1cccc2cccnc12` [Example 3, 1-[2-(S)-(Quinoline-8-sulfonylamino)-4-methylpentyl]-L-proline 4-Phenylbutylamide], the IC50 was ≤ 11 µM and 11 µM in the test on NF-AT; over 5 µM at FKBP.
